In ChEMBL document CHEMBL2202954, “The effect of PLC-γ2 inhibitors on the growth of human tumour cells” (2012):

Columns and labels:
Type in all cases: functional
NCI-H23 = assay: Cytotoxicity against human NCI-H23 cells assessed as cellular growth at 10 uM by SRB assay
U-251 = assay: Cytotoxicity against human U251 cells assessed as cellular growth at 10 uM by SRB assay
786-0 = assay: Cytotoxicity against human 786-0 cells assessed as cellular growth at 10 uM by SRB assay
COLO 205 = assay: Cytotoxicity against human COLO205 cells assessed as cellular growth at 10 uM by SRB assay
SW-620 = assay: Cytotoxicity against human SW620 cells assessed as cellular growth at 10 uM by SRB assay
HCT-15 = assay: Cytotoxicity against human HCT15 cells assessed as cellular growth at 10 uM by SRB assay
T47D = assay: Cytotoxicity against human T47D cells assessed as cellular growth at 10 uM by SRB assay
UACC-62 = assay: Cytotoxicity against human UACC62 cells assessed as cellular growth at 10 uM by SRB assay
LOX IMVI = assay: Cytotoxicity against human LOXIMVI cells assessed as cellular growth at 10 uM by SRB assay
SK-MEL-2 = assay: Cytotoxicity against human SK-MEL-2 cells assessed as cellular growth at 10 uM by SRB assay
K562 = assay: Cytotoxicity against human K562 cells assessed as cellular growth at 10 uM by SRB assay
Hs-578T = assay: Cytotoxicity against human Hs578T cells assessed as cellular growth at 10 uM by SRB assay
MDA-MB-435 = assay: Cytotoxicity against human MDA-MB-435 cells assessed as cellular growth at 10 uM by SRB assay
SF-539 = assay: Cytotoxicity against human SF539 cells assessed as cellular growth at 10 uM by SRB assay
HT-29 = assay: Cytotoxicity against human HT-29 cells assessed as cellular growth at 10 uM by SRB assay
NCI-H460 = assay: Cytotoxicity against human NCI-H460 cells assessed as cellular growth at 10 uM by SRB assay
SF-295 = assay: Cytotoxicity against human SF295 cells assessed as cellular growth at 10 uM by SRB assay
OVCAR-5 = assay: Cytotoxicity against human OVCAR5 cells assessed as cellular growth at 10 uM by SRB assay
MOLT-4 = assay: Cytotoxicity against human MOLT4 cells assessed as cellular growth at 10 uM by SRB assay
[1] = Cytotoxicity against human NCI-ADR-RES cells assessed as cellular growth at 10 uM by SRB assay
SK-MEL-5 = assay: Cytotoxicity against human SK-MEL-5 cells assessed as cellular growth at 10 uM by SRB assay
SNB-75 = assay: Cytotoxicity against human SNB75 cells assessed as cellular growth at 10 uM by SRB assay
HCT-116 = assay: Cytotoxicity against human HCT116 cells assessed as cellular growth at 10 uM by SRB assay
HOP-62 = assay: Cytotoxicity against human HOP62 cells assessed as cellular growth at 10 uM by SRB assay
IGROV-1 = assay: Cytotoxicity against human IGROV1 cells assessed as cellular growth at 10 uM by SRB assay
PC-3 = assay: Cytotoxicity against human PC3 cells assessed as cellular growth at 10 uM by SRB assay
SNB-19 = assay: Cytotoxicity against human SNB19 cells assessed as cellular growth at 10 uM by SRB assay
Malme-3M = assay: Cytotoxicity against human MALME-3M cells assessed as cellular growth at 10 uM by SRB assay
HL-60(TB) = assay: Cytotoxicity against human HL-60(TB) cells assessed as cellular growth at 10 uM by SRB assay
UACC-257 = assay: Cytotoxicity against human UACC257 cells assessed as cellular growth at 10 uM by SRB assay
CAKI-1 = assay: Cytotoxicity against human Caki1 cells assessed as cellular growth at 10 uM by SRB assay
MDA-MB-468 = assay: Cytotoxicity against human MDA-MB-468 cells assessed as cellular growth at 10 uM by SRB assay
SR = assay: Cytotoxicity against human SR cells assessed as cellular growth at 10 uM by SRB assay
SN12C = assay: Cytotoxicity against human SN12C cells assessed as cellular growth at 10 uM by SRB assay
HCC 2998 = assay: Cytotoxicity against human HCC2998 cells assessed as cellular growth at 10 uM by SRB assay
OVCAR-8 = assay: Cytotoxicity against human OVCAR8 cells assessed as cellular growth at 10 uM by SRB assay
NCI-H322M = assay: Cytotoxicity against human NCI-H322M cells assessed as cellular growth at 10 uM by SRB assay
MCF7 = assay: Cytotoxicity against human MCF7 cells assessed as cellular growth at 10 uM by SRB assay
EKVX = assay: Cytotoxicity against human EKVX cells assessed as cellular growth at 10 uM by SRB assay
CCRF-CEM = assay: Cytotoxicity against human CCRF-CEM cells assessed as cellular growth at 10 uM by SRB assay
BT-549 = assay: Cytotoxicity against human BT549 cells assessed as cellular growth at 10 uM by SRB assay
KM12 = assay: Cytotoxicity against human KM12 cells assessed as cellular growth at 10 uM by SRB assay
RXF 393 = assay: Cytotoxicity against human RXF393 cells assessed as cellular growth at 10 uM by SRB assay
SK-OV-3 = assay: Cytotoxicity against human SKOV3 cells assessed as cellular growth at 10 uM by SRB assay
RPMI-8226 = assay: Cytotoxicity against human RPMI8226 cells assessed as cellular growth at 10 uM by SRB assay
M14 = assay: Cytotoxicity against human M14 cells assessed as cellular growth at 10 uM by SRB assay
NCI-H522 = assay: Cytotoxicity against human NCI-H522 cells assessed as cellular growth at 10 uM by SRB assay
A549 = assay: Cytotoxicity against human A549 cells assessed as cellular growth at 10 uM by SRB assay
DU-145 = assay: Cytotoxicity against human DU145 cells assessed as cellular growth at 10 uM by SRB assay
MDA-MB-231 = assay: Cytotoxicity against human MDA-MB-231 cells assessed as cellular growth at 10 uM by SRB assay
SF-268 = assay: Cytotoxicity against human SF268 cells assessed as cellular growth at 10 uM by SRB assay
NCI-H226 = assay: Cytotoxicity against human NCI-H226 cells assessed as cellular growth at 10 uM by SRB assay
SK-MEL-28 = assay: Cytotoxicity against human SK-MEL-28 cells assessed as cellular growth at 10 uM by SRB assay
TK-10 = assay: Cytotoxicity against human TK10 cells assessed as cellular growth at 10 uM by SRB assay
UO-31 = assay: Cytotoxicity against human UO31 cells assessed as cellular growth at 10 uM by SRB assay
OVCAR-3 = assay: Cytotoxicity against human OVCAR3 cells assessed as cellular growth at 10 uM by SRB assay
ACHN = assay: Cytotoxicity against human ACHN cells assessed as cellular growth at 10 uM by SRB assay
A498 = assay: Cytotoxicity against human A498 cells assessed as cellular growth at 10 uM by SRB assay

O=c1/c(=C/c2ccccc2Cl)sc2nc(-c3ccccc3)nn12
Activity (NCI-H23): 86.7% | Activity (U-251): 89.87% | Activity (786-0): 101.12% | Activity (COLO 205): 113.47% | Activity (SW-620): 107.46% | Activity (HCT-15): 79.8% | Activity (T47D): 90.39% | Activity (UACC-62): 83.77% | Activity (LOX IMVI): 63.33% | Activity (SK-MEL-2): 100.14% | Activity (K562): 48.93% | Activity (Hs-578T): 89.46% | Activity (MDA-MB-435): 78.08% | Activity (SF-539): 94.89% | Activity (HT-29): 112.54% | Activity (NCI-H460): 99.8% | Activity (SF-295): 99.98% | Activity (OVCAR-5): 119.68% | Activity (MOLT-4): 69.85% | Activity [1]: 90.47% | Activity (SK-MEL-5): 93.49% | Activity (SNB-75): 64.38% | Activity (HCT-116): 72.43% | Activity (HOP-62): 103.3% | Activity (IGROV-1): 96.71% | Activity (PC-3): 72.09% | Activity (SNB-19): 90.58% | Activity (Malme-3M): 92.95% | Activity (HL-60(TB)): 66.88% | Activity (UACC-257): 85.66% | Activity (CAKI-1): 98.22% | Activity (MDA-MB-468): 96.99% | Activity (SR): 45.36% | Activity (SN12C): 94.39% | Activity (HCC 2998): 104.88% | Activity (OVCAR-8): 97.99% | Activity (NCI-H322M): 96.56% | Activity (MCF7): 91.04% | Activity (EKVX): 99.45% | Activity (CCRF-CEM): 56.07% | Activity (BT-549): 91.77% | Activity (KM12): 89.57% | Activity (RXF 393): 99.76% | Activity (SK-OV-3): 104.04% | Activity (RPMI-8226): 50.72% | Activity (M14): 76.15% | Activity (NCI-H522): 85.92% | Activity (A549): 87.55% | Activity (DU-145): 92.88% | Activity (MDA-MB-231): 90.97% | Activity (SF-268): 91.24% | Activity (NCI-H226): 100.04% | Activity (SK-MEL-28): 109.04% | Activity (TK-10): 123.92% | Activity (UO-31): 58.67% | Activity (OVCAR-3): 108.39% | Activity (ACHN): 97.57%

Cc1ccc(NC(=O)c2sc3nc4c(cc3c2N)C(=O)CCC4)cc1Cl
Activity (NCI-H23): 100.21% | Activity (U-251): 97.87% | Activity (786-0): 103.81% | Activity (COLO 205): 127.7% | Activity (SW-620): 112.63% | Activity (HCT-15): 97.31% | Activity (T47D): 105.09% | Activity (UACC-62): 108.17% | Activity (LOX IMVI): 99.16% | Activity (SK-MEL-2): 112.11% | Activity (K562): 92.98% | Activity (Hs-578T): 112.53% | Activity (MDA-MB-435): 99.15% | Activity (SF-539): 102.38% | Activity (HT-29): 97.53% | Activity (NCI-H460): 106.36% | Activity (SF-295): 79.97% | Activity (OVCAR-5): 100.98% | Activity (MOLT-4): 107.73% | Activity [1]: 103.82% | Activity (SK-MEL-5): 101.61% | Activity (SNB-75): 110.07% | Activity (HCT-116): 105.04% | Activity (HOP-62): 110.02% | Activity (IGROV-1): 105.54% | Activity (PC-3): 103.74% | Activity (SNB-19): 114.43% | Activity (Malme-3M): 112.49% | Activity (HL-60(TB)): 105.82% | Activity (UACC-257): 95.07% | Activity (CAKI-1): 85.93% | Activity (MDA-MB-468): 104.98% | Activity (SR): 105.35% | Activity (SN12C): 119.21% | Activity (HCC 2998): 102.57% | Activity (OVCAR-8): 103.45% | Activity (NCI-H322M): 109.22% | Activity (A498): 97.9% | Activity (MCF7): 102.05% | Activity (EKVX): 86.19% | Activity (CCRF-CEM): 104.3% | Activity (BT-549): 114.66% | Activity (KM12): 115.57% | Activity (RXF 393): 117.2% | Activity (SK-OV-3): 113.94% | Activity (RPMI-8226): 104.81% | Activity (M14): 121.85% | Activity (NCI-H522): 96.14% | Activity (A549): 100.84% | Activity (DU-145): 108.78% | Activity (MDA-MB-231): 113.04% | Activity (SF-268): 115.11% | Activity (NCI-H226): 101.89% | Activity (SK-MEL-28): 108.49% | Activity (TK-10): 96.53% | Activity (UO-31): 110.67% | Activity (OVCAR-3): 112.77% | Activity (ACHN): 109.05%
